Data reported in ChEMBL document CHEMBL5463725, “Data for DCP probe BAY-277” (2023).

Assays:
[1] = target: T1, Muscarinic acetylcholine receptor M2 (Homo sapiens) (UniProt P08172); experiment: Inhibition of Muscarinic M2 at 10.0 µM in the Eurofins Panlabs Safety Screen; settings: Compound concentration 10.0 uM
T1 sequence (whole entry): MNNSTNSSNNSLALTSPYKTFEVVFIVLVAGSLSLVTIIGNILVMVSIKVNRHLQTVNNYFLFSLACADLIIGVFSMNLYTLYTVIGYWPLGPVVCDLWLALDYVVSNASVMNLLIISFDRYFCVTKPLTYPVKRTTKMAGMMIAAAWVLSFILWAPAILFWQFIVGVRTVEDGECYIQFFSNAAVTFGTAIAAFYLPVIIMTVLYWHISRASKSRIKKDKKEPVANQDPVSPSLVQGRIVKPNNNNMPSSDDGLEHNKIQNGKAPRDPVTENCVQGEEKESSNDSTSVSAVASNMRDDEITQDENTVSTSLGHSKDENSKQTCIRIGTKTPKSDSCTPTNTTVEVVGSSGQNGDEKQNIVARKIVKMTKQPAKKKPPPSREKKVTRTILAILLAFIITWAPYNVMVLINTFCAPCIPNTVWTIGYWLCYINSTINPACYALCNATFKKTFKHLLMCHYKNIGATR

[2] = target: Sodium-dependent serotonin transporter (Homo sapiens) (UniProt P31645); settings: Compound concentration 10.0 uM
Chain of Sodium-dependent serotonin transporter (Homo sapiens) (P31645 whole entry, looked up): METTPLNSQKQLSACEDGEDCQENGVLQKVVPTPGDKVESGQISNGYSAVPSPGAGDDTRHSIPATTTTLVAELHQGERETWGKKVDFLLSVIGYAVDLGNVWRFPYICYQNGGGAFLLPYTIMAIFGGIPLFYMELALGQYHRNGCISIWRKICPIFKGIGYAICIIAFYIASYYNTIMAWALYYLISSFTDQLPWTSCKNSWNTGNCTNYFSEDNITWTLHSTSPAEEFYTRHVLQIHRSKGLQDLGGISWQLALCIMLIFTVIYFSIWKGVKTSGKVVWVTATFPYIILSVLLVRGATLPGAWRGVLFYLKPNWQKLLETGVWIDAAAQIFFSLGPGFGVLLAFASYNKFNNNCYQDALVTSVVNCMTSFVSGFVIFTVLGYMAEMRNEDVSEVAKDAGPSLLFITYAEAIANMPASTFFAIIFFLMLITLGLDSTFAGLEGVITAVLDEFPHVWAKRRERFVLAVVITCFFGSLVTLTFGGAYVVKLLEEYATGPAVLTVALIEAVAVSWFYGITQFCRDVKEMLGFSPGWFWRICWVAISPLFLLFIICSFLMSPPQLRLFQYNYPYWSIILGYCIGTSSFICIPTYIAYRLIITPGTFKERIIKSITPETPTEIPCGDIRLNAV

[3] = target: GABA B receptor (Rattus norvegicus) (UniProt Q9Z0U4+O88871); experiment: Inhibition of GABAB, Non-Selective at 10.0 µM in the Eurofins Panlabs Safety Screen; format: protein-complex assay; settings: Compound concentration 10.0 uM
[4] = target: Histamine H2 receptor (Homo sapiens) (UniProt P25021); settings: Compound concentration 10.0 uM
Chain of Histamine H2 receptor (Homo sapiens) (P25021 whole entry): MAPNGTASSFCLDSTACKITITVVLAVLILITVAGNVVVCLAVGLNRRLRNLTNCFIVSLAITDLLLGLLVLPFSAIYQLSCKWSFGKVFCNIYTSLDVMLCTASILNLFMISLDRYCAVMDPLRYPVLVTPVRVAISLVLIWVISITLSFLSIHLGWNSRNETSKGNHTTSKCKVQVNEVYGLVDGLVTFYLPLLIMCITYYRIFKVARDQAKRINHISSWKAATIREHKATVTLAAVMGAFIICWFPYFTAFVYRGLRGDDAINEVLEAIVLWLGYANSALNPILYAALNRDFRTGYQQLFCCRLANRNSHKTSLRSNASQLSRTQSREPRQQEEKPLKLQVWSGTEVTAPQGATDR

[5] = target: Beta-3 adrenergic receptor (Homo sapiens) (UniProt P13945); experiment: Inhibition of Adrenergic beta3 at 10.0 µM in the Eurofins Panlabs Safety Screen; settings: Compound concentration 10.0 uM
Chain of Beta-3 adrenergic receptor (Homo sapiens) (P13945 whole entry, looked up): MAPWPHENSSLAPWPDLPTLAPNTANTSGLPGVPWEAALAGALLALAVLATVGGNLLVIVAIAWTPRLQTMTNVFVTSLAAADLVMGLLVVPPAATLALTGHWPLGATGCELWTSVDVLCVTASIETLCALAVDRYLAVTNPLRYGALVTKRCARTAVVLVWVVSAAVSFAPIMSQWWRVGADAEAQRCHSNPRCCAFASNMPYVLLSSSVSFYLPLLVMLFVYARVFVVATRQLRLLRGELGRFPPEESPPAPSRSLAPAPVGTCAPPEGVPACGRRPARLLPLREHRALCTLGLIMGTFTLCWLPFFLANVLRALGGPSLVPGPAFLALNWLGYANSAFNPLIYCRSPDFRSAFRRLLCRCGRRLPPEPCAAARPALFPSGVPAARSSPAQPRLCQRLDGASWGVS

[6] = target: Mu-type opioid receptor (Homo sapiens) (UniProt P35372); settings: Compound concentration 10.0 uM
Chain of Mu-type opioid receptor (Homo sapiens) (P35372 whole entry): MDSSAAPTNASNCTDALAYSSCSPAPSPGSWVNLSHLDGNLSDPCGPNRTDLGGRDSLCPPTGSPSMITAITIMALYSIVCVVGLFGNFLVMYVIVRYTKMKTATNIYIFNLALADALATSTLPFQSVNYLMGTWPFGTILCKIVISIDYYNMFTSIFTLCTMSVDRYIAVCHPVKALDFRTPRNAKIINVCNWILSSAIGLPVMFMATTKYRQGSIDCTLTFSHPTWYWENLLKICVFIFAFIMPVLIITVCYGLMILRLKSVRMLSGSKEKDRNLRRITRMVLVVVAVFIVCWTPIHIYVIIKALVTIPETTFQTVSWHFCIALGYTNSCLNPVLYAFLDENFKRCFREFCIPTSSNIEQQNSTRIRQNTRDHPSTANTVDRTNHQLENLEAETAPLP

[7] = target: T2, Muscarinic acetylcholine receptor M4 (Homo sapiens) (UniProt P08173); settings: Compound concentration 10.0 uM
T2 sequence (whole entry): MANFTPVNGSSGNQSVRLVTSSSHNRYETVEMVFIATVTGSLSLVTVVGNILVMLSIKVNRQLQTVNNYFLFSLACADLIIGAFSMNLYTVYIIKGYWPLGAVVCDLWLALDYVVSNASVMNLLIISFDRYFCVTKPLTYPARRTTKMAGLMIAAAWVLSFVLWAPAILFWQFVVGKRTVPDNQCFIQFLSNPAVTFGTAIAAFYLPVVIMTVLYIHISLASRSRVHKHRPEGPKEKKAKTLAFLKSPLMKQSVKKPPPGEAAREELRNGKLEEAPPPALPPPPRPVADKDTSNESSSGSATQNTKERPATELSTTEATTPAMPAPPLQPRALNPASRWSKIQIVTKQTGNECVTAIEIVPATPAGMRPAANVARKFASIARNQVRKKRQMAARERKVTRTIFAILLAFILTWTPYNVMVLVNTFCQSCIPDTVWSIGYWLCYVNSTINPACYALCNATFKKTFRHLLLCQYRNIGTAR

[8] = target: Glucocorticoid receptor (Homo sapiens) (UniProt P04150); experiment: Inhibition of Glucocorticoid at 10.0 µM in the Eurofins Panlabs Safety Screen; settings: Compound concentration 10.0 uM
Chain of Glucocorticoid receptor (Homo sapiens) (P04150 whole entry): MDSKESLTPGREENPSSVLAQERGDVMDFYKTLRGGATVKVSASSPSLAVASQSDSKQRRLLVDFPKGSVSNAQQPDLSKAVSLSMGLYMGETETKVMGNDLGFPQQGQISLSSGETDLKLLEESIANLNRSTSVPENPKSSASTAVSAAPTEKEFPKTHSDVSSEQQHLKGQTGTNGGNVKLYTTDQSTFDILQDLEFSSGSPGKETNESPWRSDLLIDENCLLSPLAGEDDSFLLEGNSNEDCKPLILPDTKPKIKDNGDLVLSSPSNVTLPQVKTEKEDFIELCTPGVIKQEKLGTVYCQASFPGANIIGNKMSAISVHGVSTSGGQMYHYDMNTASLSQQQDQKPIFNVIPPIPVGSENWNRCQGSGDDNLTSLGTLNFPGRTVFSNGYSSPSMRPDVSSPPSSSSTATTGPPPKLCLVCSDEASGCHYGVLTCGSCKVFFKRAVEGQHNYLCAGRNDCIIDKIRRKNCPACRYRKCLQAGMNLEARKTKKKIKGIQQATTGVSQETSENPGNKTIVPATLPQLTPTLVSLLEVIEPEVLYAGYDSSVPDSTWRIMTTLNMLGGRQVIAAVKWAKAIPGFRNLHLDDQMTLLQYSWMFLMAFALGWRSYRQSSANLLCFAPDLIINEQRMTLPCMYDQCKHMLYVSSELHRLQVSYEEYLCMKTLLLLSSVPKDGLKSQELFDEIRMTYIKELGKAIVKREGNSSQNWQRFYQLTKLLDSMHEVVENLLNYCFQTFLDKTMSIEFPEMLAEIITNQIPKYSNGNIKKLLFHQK

[9] = target: Endothelin-1 receptor (Homo sapiens) (UniProt P25101); experiment: Inhibition of Endothelin ETA at 10.0 µM in the Eurofins Panlabs Safety Screen; settings: Compound concentration 10.0 uM
[10] = target: Delta-type opioid receptor (Homo sapiens) (UniProt P41143); settings: Compound concentration 10.0 uM
Chain of Delta-type opioid receptor (Homo sapiens) (P41143 whole entry): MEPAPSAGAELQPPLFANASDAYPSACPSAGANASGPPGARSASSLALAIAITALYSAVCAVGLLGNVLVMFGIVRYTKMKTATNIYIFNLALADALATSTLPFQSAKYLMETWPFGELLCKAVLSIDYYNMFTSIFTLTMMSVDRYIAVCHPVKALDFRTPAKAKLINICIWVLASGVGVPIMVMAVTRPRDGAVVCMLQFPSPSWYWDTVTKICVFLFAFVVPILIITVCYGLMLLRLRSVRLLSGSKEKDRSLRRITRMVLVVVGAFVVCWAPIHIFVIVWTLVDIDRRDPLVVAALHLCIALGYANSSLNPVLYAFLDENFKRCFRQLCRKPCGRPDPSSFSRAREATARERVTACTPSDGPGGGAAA

[11] = target: Sodium-dependent serotonin transporter (Homo sapiens) (UniProt P31645); experiment: Inhibition of Transporter, Serotonin (5-Hydroxytryptamine) (SERT) at 10.0 µM in the Eurofins Panlabs Safety Screen; settings: Compound concentration 10.0 uM
[12] = target: Sodium-dependent dopamine transporter (Homo sapiens, UniProt Q01959); settings: Compound concentration 10.0 uM
Chain of Sodium-dependent dopamine transporter (Q01959 whole entry): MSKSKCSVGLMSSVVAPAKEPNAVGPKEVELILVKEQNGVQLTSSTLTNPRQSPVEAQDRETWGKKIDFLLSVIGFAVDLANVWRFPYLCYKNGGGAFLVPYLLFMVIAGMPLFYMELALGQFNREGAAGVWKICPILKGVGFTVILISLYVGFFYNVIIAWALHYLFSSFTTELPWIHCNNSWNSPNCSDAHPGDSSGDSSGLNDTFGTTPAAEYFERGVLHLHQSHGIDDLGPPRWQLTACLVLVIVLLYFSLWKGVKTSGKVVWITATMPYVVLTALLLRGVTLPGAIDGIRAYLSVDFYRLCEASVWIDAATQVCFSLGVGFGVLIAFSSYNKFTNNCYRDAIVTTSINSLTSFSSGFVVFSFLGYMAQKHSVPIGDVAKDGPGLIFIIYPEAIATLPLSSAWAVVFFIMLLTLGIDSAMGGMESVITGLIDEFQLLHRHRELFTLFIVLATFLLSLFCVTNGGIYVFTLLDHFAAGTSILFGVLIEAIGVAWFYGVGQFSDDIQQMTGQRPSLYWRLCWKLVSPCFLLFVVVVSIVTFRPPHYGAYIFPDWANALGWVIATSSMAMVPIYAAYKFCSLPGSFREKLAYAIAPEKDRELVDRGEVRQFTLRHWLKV

[13] = target: D(2) dopamine receptor (Homo sapiens) (UniProt P14416); experiment: Inhibition of Dopamine D2S at 10.0 µM in the Eurofins Panlabs Safety Screen; settings: Compound concentration 10.0 uM
Chain of D(2) dopamine receptor (Homo sapiens) (P14416 whole entry): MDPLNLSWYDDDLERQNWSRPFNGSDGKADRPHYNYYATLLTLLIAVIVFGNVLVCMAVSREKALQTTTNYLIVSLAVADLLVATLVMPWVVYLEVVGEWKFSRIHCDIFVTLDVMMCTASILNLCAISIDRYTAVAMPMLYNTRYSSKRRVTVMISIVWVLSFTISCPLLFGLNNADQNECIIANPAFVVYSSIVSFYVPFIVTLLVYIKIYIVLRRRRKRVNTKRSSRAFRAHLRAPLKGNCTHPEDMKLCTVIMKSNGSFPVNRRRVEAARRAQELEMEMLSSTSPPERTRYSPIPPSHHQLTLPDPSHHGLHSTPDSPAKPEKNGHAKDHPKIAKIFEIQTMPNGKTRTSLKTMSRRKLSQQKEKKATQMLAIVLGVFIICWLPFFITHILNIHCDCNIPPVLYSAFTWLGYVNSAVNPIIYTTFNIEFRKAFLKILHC

[14] = target: T3, Alpha-2B adrenergic receptor (Homo sapiens) (UniProt P18089); experiment: Inhibition of Adrenergic alpha2B at 10.0 µM in the Eurofins Panlabs Safety Screen; settings: Compound concentration 10.0 uM
T3 sequence (whole entry): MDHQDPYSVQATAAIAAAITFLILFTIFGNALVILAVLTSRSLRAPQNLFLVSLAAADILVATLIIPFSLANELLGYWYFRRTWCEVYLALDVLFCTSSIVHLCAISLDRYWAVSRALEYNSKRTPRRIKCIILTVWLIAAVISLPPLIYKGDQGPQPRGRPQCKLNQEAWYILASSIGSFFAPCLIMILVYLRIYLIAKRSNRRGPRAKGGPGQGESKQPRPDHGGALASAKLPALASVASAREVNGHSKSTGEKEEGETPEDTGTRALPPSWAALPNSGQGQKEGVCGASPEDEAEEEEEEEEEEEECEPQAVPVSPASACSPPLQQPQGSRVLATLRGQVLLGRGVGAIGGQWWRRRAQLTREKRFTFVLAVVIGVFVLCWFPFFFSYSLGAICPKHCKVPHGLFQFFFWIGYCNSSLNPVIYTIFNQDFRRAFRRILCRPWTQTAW

[15] = target: Prostaglandin G/H synthase 1 (Homo sapiens) (UniProt P23219); experiment: Inhibition of Cyclooxygenase COX-1 at 10.0 µM in the Eurofins Panlabs Safety Screen; settings: Compound concentration 10.0 uM
[16] = target: Nitric oxide synthase 1 (Homo sapiens) (UniProt P29475); experiment: Inhibition of Nitric Oxide Synthase, Neuronal (nNOS) at 10.0 µM in the Eurofins Panlabs Safety Screen; settings: Rattus norvegicus; Compound concentration 10.0 uM
[17] = target: Aldo-keto reductase family 1 member B1 (Rattus norvegicus) (UniProt P07943); experiment: Inhibition of Aldose Reductase at 10.0 µM in the Eurofins Panlabs Safety Screen; settings: Compound concentration 10.0 uM
[18] = target: Histamine H4 receptor (Homo sapiens) (UniProt Q9H3N8); settings: Compound concentration 10.0 uM
Chain of Histamine H4 receptor (Homo sapiens) (Q9H3N8 whole entry): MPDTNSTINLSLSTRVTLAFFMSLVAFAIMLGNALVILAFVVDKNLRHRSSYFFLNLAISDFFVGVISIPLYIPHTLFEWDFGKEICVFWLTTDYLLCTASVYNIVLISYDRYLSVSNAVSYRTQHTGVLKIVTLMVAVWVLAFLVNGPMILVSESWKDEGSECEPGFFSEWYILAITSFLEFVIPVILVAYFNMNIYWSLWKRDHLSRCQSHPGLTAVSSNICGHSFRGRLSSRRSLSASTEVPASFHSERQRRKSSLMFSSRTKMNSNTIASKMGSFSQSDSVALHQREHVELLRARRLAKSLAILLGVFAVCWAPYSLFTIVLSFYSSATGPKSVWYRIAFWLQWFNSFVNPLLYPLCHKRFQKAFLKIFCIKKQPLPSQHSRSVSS

[19] = target: Histamine H2 receptor (Homo sapiens) (UniProt P25021); experiment: Inhibition of Histamine H2 at 10.0 µM in the Eurofins Panlabs Safety Screen; settings: Compound concentration 10.0 uM
[20] = target: Serine/threonine-protein kinase haspin (Homo sapiens) (UniProt Q8TF76); experiment: Inhibition of Haspin(h) at 10.0 µM in the Eurofins Kinase panel; settings: Compound concentration 10.0 uM
[21] = target: T4, Muscarinic acetylcholine receptor M4 (Homo sapiens, UniProt P08173); experiment: GPCRScan assay: inhibition of M4; parameters: radioligand conc. used [nm] 0.3 – 1.0, parental cells stable CHO
T4 sequence (P08173 whole entry): T2 sequence (whole entry)

[22] = target: B1 bradykinin receptor (Homo sapiens) (UniProt P46663); experiment: Inhibition of Bradykinin B1 at 10.0 µM in the Eurofins Panlabs Safety Screen; settings: Compound concentration 10.0 uM
Chain of B1 bradykinin receptor (Homo sapiens) (P46663 whole entry): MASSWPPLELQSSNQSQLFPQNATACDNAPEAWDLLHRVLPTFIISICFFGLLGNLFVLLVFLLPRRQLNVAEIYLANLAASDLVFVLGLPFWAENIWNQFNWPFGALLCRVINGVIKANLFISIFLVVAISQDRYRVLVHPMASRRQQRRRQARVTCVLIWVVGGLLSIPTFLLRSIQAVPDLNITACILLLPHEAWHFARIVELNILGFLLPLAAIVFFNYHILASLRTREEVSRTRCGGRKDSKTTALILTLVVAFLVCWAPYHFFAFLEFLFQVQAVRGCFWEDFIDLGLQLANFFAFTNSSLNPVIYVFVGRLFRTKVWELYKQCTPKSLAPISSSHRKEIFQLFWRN

[23] = target: D(3) dopamine receptor (Homo sapiens, UniProt P35462); experiment: Inhibition of Dopamine D3 at 10.0 µM in the Eurofins Panlabs Safety Screen; settings: Compound concentration 10.0 uM

Question: How did the inhibition [1] turn out when O=C1NCCCC1N1Cc2cc(C3CCN(C(=O)CCCCCN4CCC(c5ccc(Oc6nn7cnnc7c7c6CCCC7)cc5)CC4)CC3)ccc2C1=O (stereo not drawn) was run?
Answer: The inhibition was 47%.

Question: What about the inhibition [2] of the same compound?
Answer: Its inhibition is 9.58%.

Question: And the inhibition [3]?
Answer: The inhibition was 22%.

Question: And the inhibition [4]?
Answer: The inhibition was 42.1%.

Question: What about the inhibition [5] of the same compound?
Answer: The inhibition was 13%.

Question: And the inhibition [6]?
Answer: Its inhibition is 13.8%.

Question: What about the inhibition [7] of the same compound?
Answer: Its inhibition is 76.1%.

Question: And the inhibition [8]?
Answer: The inhibition was 20%.

Question: What about the inhibition [9] of the same compound?
Answer: Its inhibition is 3%.

Question: What about the inhibition [10] of the same compound?
Answer: Its inhibition is 19.5%.

Question: And the inhibition [11]?
Answer: The inhibition was 22%.

Question: What about the inhibition [12] of the same compound?
Answer: Its inhibition is 51.4%.

Question: What about the inhibition [13] of the same compound?
Answer: The inhibition was 13%.

Question: And the inhibition [14]?
Answer: The inhibition was 8%.

Question: And the inhibition [15]?
Answer: Its inhibition is 21%.

Question: What about the inhibition [16] of the same compound?
Answer: Its inhibition is -4%.

Question: What about the inhibition [17] of the same compound?
Answer: Its inhibition is 29%.

Question: What about the inhibition [18] of the same compound?
Answer: Its inhibition is -3.44%.

Question: And the inhibition [19]?
Answer: The inhibition was 36%.

Question: What about the inhibition [20] of the same compound?
Answer: The inhibition was 26%.

Question: What about the Ki ([21]; read-out: Ki) of the same compound?
Answer: The Ki was 894 nM.

Question: And the Ki ([21]; read-out: pKi (converted))?
Answer: The Ki was 891 nM.

Question: What about the inhibition [22] of the same compound?
Answer: Its inhibition is 7%.

Question: What about the inhibition [23] of the same compound?
Answer: Its inhibition is 76%.

Question: Which results are given for O=C1CCC(N2Cc3cc(C4CCN(C(=O)CCCCCN5CCC(c6ccc(Oc7nn8cnnc8c8c7CCCC8)cc6)CC5)CC4)ccc3C2=O)C(=O)N1 (stereo not drawn)?
Answer: inhibition [1]: 53%; inhibition [2]: 45.8%; inhibition [3]: 15%; inhibition [4]: 42.2%; inhibition [5]: 16%; inhibition [6]: 16.3%; inhibition [7]: 83.5%; inhibition [8]: 13%; inhibition [9]: -1%; inhibition [10]: 17.5%; inhibition [11]: 32%; inhibition [12]: 50.7%; inhibition [13]: -8%; inhibition [14]: 19%; inhibition [15]: 16%; inhibition [16]: 9%; inhibition [17]: 32%; inhibition [18]: -8.84%; inhibition [19]: 32%; inhibition [20]: 28.6%; Ki ([21]; read-out: Ki): 632 nM; Ki ([21]; read-out: pKi (converted)): 617 nM; inhibition [22]: 1%; inhibition [23]: 90%
